Measured values as given in patent US9409952B2, “Peptide-compound cyclization method” (Chugai Seiyaku Kabushiki Kaisha, priority 2011, dated 2016).
Where two headings read alike, the source gives them in different places. Starred links: 1 amine or outer side, 2 acyl side, 3 side chain; linkers in the order of their positions; H or OH if unused. Positions of bridges follow the written chain, without caps; N, C: chain ends. Non-standard residues stand in square brackets, D forms with d. Residues, ends and D or L forms follow the SMILES beside them. ξ: configuration not given here. *: point of attachment. Phe(3-(CH2)4CO) = O=C([C@H](Cc1cccc(CCCCC(=O)[*:3])c1)N[*:1])[*:2]; NMeF = CN[C@@H](Cc1ccccc1)C(=O)O; NMeGABA = CN(CCCC(=O)[*:2])[*:1]; NMeI = CC[C@H](C)[C@H](NC)C(=O)O; NMeβAla = CN(CCC(=O)[*:2])[*:1]; NMeL = CN[C@@H](CC(C)C)C(=O)O; ξNMeF = CNC(Cc1ccccc1)C(=O)O; NMeV = CN[C@H](C(=O)O)C(C)C; NMeS = CN[C@@H](CO)C(=O)O; NMeA = CN[C@@H](C)C(=O)O; Piperidide = C1CCN(*)CC1; dNMeA = CN[C@H](C)C(=O)O; β3hA = C[C@H](N)CC(=O)O; Abu = CC[C@H](N)C(=O)O; Sar = CNCC(=O)O; tBu = CC(C)(C)*

How the values were obtained:
[1] = Metabolic stability in human hepatic microsome; assay type: in vitro ADME; conditions: microsomes
[2] = PAMPA (parallel artificial membrane permeability assay); assay type: in vitro ADME; conditions: PAMPA
How it was run: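 Artificial membrane was 10% (w/v) egg lecithin plus 0.5% (w/v) cholesterol in dodecane on a PVDF filter. A 10 mM DMSO stock was added at 0.5% (v/v) to donor buffer (50 mM MOPSO, pH 6.5, 5.0% glycocholic acid). After 18 h at 37 °C, LC/MS or LC/UV gave donor and acceptor levels for Pe.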

[3] = pH 7.4, human hepatic microsome, NADPH(+), read-out: CL NADPH(+)
[4] = membrane permeation rate (Pe), 50 mM MOPSO buffer pH 6.5 with 5.0% glycocholic acid, 37° C., 18 hours, read-out: iPAMPA Pe

Compound	microsomal CLint at 1 uM [1, 3] [µL/min/mg]	Papp at 18 hours, 50 µM [2, 4] [×10⁻⁶ cm/s]	microsomal CLint at 1 uM ([1]; human, pH 7.4, CL NADPH(+)) [µL/min/mg]	Papp at 18 hours, 50 µM ([2]; pH 6.5) [×10⁻⁶ cm/s]
CC(C)C[C@H](NC(=O)[C@H](Cc1ccccc1)N(C)C(=O)[C@@H]1CC(=O)N[C@H](C)C(=O)N[C@@H](C(C)C)C(=O)N(C)[C@@H](Cc2ccccc2)C(=O)N(C)[C@@H](CC(C)C)C(=O)N(C)[C@@H](C)C(=O)N[C@@H]([C@@H](C)O)C(=O)N[C@@H](Cc2ccccc2)C(=O)N1)C(=O)N[C@@H](C)C(=O)N1CCCCC1 [DP-658] ([dA]V[NMeF][NMeL][NMeA]TFD[NMeF]LA-Piperidide; lactam N-8)	86	32	–	–
CC[C@H](C)[C@@H]1NC(=O)[C@H](C)N(C)C(=O)[C@H](CC(C)C)NC(=O)[C@H]([C@@H](C)O)NC(=O)CNC(=O)[C@@H]2CCCN2C(=O)[C@H](COC(C)(C)C)NC(=O)[C@H](CC(C)C)N(C)C(=O)[C@H](Cc2ccccc2)NC(=O)CCCN(C)C(=O)C[C@@H](C(=O)N2CCCCC2)NC(=O)[C@H](Cc2ccccc2)N(C)C1=O [DP-107] ([NMeGABA]F[NMeL]S(tBu)PGTL[NMeA]I[NMeF]D-Piperidide; lactam N-12)	14	23	–	–
CC(C)C[C@H]1C(=O)N[C@@H](C(C)C)C(=O)N[C@H](C(=O)N(C)C(Cc2ccccc2)C(=O)N(C)[C@@H](Cc2ccccc2)C(=O)N[C@@H](C)C(=O)N2CCCCC2)CC(=O)N[C@H](C(C)C)C(=O)N(C)[C@@H](C)C(=O)N(C)[C@@H](Cc2ccccc2)C(=O)N(C)[C@@H](CC(C)C)C(=O)N[C@@H]([C@@H](C)O)C(=O)N(C)CC(=O)N1C (stereo partly drawn) [DP-306] ([dV][NMeA][NMeF][NMeL]T[Sar][NMeL]VD[ξNMeF][NMeF]A-Piperidide; lactam N-9)	–	–	63	56
CC(C)C[C@@H]1NC(=O)[C@H](Cc2ccccc2)N(C)C(=O)CNC(=O)[C@H]([C@@H](C)O)NC(=O)[C@H](CC(C)C)N(C)C(=O)[C@H](COC(C)(C)C)NC(=O)[C@H](C)N(C)C(=O)C[C@@H](C(=O)N2CCCCC2)NC(=O)[C@H](Cc2ccccc2)NC(=O)[C@H](CC(C)C)N(C)C1=O [DP-437] ([NMeA]S(tBu)[NMeL]TG[NMeF]L[NMeL]FD-Piperidide; lactam N-10)	265	37	–	–
CC[C@H](C)[C@H]1C(=O)N(C)[C@@H](C)C(=O)N(C)[C@@H](CC(C)C)C(=O)N[C@@H](COC(C)(C)C)C(=O)N(C)[C@@H](CC(C)C)C(=O)N[C@@H](C)CC(=O)N(C)[C@@H](C)C(=O)N(C)[C@@H](Cc2ccccc2)C(=O)N[C@@H](C)C(=O)N(C)[C@@H](CC(C)C)C(=O)N[C@@H]([C@@H](C)O)C(=O)N1C [DP-816] (cyclo(A[NMeL]T[NMeI][NMeA][NMeL]S(tBu)[NMeL][β3hA][NMeA][NMeF]))	192	32	–	–
CC[C@H](C)[C@H]1C(=O)N(C)[C@@H](C(C)C)C(=O)N(C)CC(=O)N[C@@H]([C@@H](C)O)C(=O)N[C@H](C(=O)N2CCCCC2)CC(=O)N[C@H](C)C(=O)N(C)[C@@H](C)C(=O)N(C)[C@@H](CC(C)C)C(=O)N[C@@H](CC(C)C)C(=O)N(C)[C@@H](Cc2ccccc2)C(=O)N[C@@H](Cc2ccccc2)C(=O)N1C [DP-98] ([dA][NMeA][NMeL]L[NMeF]F[NMeI][NMeV][Sar]TD-Piperidide; lactam N-11)	27	26	–	–
CC[C@@H]1NC(=O)[C@H](CC(C)C)N(C)C(=O)[C@H](CC(C)C)NC(=O)[C@H](CC(C)C)N(C)C(=O)CN(C)C(=O)C[C@H](C)NC(=O)[C@H](CO)N(C)C(=O)[C@H](CC(C)C)N(C)C(=O)[C@H](CC(C)C)N(C)C(=O)[C@H](CC(C)C)N(C)C(=O)[C@@H](CC(C)C)NC1=O [DP-641] (cyclo([Abu][dL][NMeL][NMeL][NMeL][NMeS][β3hA][Sar][NMeL]L[NMeL]))	91	46	–	–
CC(C)C[C@H]1C(=O)NCC(=O)N[C@H](C(=O)N2CCCCC2)CC(=O)N(C)[C@@H](C)C(=O)N[C@@H]([C@@H](C)O)C(=O)N(C)[C@@H](C)C(=O)N(C)[C@@H](Cc2ccccc2)C(=O)N[C@@H](COC(C)(C)C)C(=O)N(C)[C@@H](Cc2ccccc2)C(=O)N1C [DP-79] ([NMeA]T[NMeA][NMeF]S(tBu)[NMeF][NMeL]GD-Piperidide; lactam N-9)	–	–	145	28
CC(C)C[C@H]1C(=O)N[C@H](C(=O)N2CCCCC2)Cc2cccc(c2)CCCCC(=O)N[C@@H]([C@@H](C)O)C(=O)N(C)[C@@H](C)C(=O)N(C)[C@@H](Cc2ccccc2)C(=O)NCC(=O)N(C)[C@@H](Cc2ccccc2)C(=O)N(C)[C@@H](CC(C)C)C(=O)N(C)[C@@H](CC(C)C)C(=O)N1C [DP-843] (T[NMeA][NMeF]G[NMeF][NMeL][NMeL][NMeL][Phe(3-(CH2)4CO)]-Piperidide; lactam N-9)	505	31	–	–
CC(C)C[C@@H]1NC(=O)[C@H](Cc2ccccc2)N(C)C(=O)[C@H]([C@@H](C)O)NC(=O)[C@H](Cc2ccccc2)N(C)C(=O)[C@H](C)N(C)C(=O)[C@H](C)N(C)C(=O)C[C@@H](C(=O)N2CCCCC2)NC(=O)[C@@H]2CCCN2C1=O [DP-687] ([NMeA][NMeA][NMeF]T[NMeF]LPD-Piperidide; lactam N-8)	–	–	10	10
CC(C)C[C@@H]1NC(=O)[C@H](CC(C)C)N(C)C(=O)C[C@@H](C(=O)N2CCCCC2)NC(=O)[C@H](CC(C)C)N(C)C(=O)[C@H](C)N(C)C(=O)[C@H]([C@@H](C)O)NC(=O)[C@H](CC(C)C)N(C)C(=O)[C@H](Cc2ccccc2)N(C)C(=O)[C@H](Cc2c[nH]cn2)NC(=O)[C@H](Cc2ccccc2)N(C)C(=O)[C@H](CC(C)C)N(C)C1=O [DP-906] ([NMeL]L[NMeL][NMeF]H[NMeF][NMeL]T[NMeA][NMeL]D-Piperidide; lactam N-11)	49	0.65	–	–
C=C1CCC(=O)N[C@@H](CC(C)C)C(=O)N2CCC[C@H]2C(=O)N(C)[C@@H](C(C)C)C(=O)N[C@@H](Cc2ccccc2)C(=O)N(C)CC(=O)N(C)[C@@H](CC(C)C)C(=O)N[C@@H](C)C(=O)N(C)[C@@H]([C@@H](C)CC)C(=O)N[C@H](C(=O)N2CCCCC2)Cc2ccc1cc2 [DP-880]	490	34	–	–
CC(C)C[C@@H]1NC(=O)[C@H](Cc2ccccc2)NC(=O)[C@H](CC(C)C)N(C)C(=O)[C@H](Cc2ccccc2)NC(=O)[C@@H](C)N(C)C(=O)C[C@H](C)NC(=O)[C@H](Cc2ccccc2)N(C)C(=O)CNC(=O)[C@H]([C@@H](C)O)NC(=O)[C@H](CC(C)C)NC1=O [DP-784] (cyclo(FLLTG[NMeF][β3hA][dNMeA]F[NMeL]))	–	–	97	46
CC(C)C[C@@H]1NC(=O)[C@H](Cc2ccccc2)N(C)C(=O)[C@H]([C@@H](C)O)NC(=O)[C@H](Cc2ccccc2)N(C)C(=O)[C@H](C)N(C)C(=O)[C@H](CC(C)C)N(C)C(=O)C[C@@H](C(=O)N2CCCCC2)NC(=O)[C@@H]2CCCN2C1=O [DP-688] ([NMeL][NMeA][NMeF]T[NMeF]LPD-Piperidide; lactam N-8)	–	–	23	17
CC(C)C[C@@H]1NC(=O)[C@H](CC(C)C)N(C)C(=O)[C@H](Cc2ccccc2)N(C)C(=O)[C@@H](C)N(C)C(=O)C[C@@H](C(=O)N2CCCCC2)NC(=O)[C@H](Cc2ccccc2)N(C)C(=O)[C@H](C)N(C)C(=O)[C@H](C)NC(=O)CN(C)C(=O)[C@H](C)N(C)C(=O)[C@H]([C@@H](C)O)NC(=O)[C@H](C(C)C)N(C)C1=O [DP-466] ([dNMeA][NMeF][NMeL]L[NMeV]T[NMeA][Sar]A[NMeA][NMeF]D-Piperidide; lactam N-12)	17	15	–	–
CC[C@H](C)[C@@H]1NC(=O)[C@H](CC(C)C)N(C)C(=O)[C@H](CC(C)C)NC(=O)[C@H](Cc2ccccc2)NC(=O)[C@H]([C@@H](C)O)NC(=O)[C@H](Cc2ccccc2)NC(=O)[C@@H](C)N(C)C(=O)C[C@@H](C(=O)N2CCCCC2)NC(=O)CNC(=O)[C@H](Cc2ccccc2)NC1=O [DP-431] ([dNMeA]FTFL[NMeL]IFGD-Piperidide; lactam N-10)	239	34	–	–
CC(C)C[C@H]1C(=O)N[C@@H](C(C)C)C(=O)N[C@H](C(=O)N(C)C(Cc2ccccc2)C(=O)N(C)[C@@H](Cc2ccccc2)C(=O)N[C@@H](C)C(=O)N2CCCCC2)CC(=O)N[C@H](C)C(=O)N(C)[C@@H](C)C(=O)N(C)[C@@H](Cc2ccccc2)C(=O)N(C)[C@@H](CC(C)C)C(=O)N[C@@H]([C@@H](C)O)C(=O)N(C)CC(=O)N1C (stereo partly drawn) [DP-315] ([dA][NMeA][NMeF][NMeL]T[Sar][NMeL]VD[ξNMeF][NMeF]A-Piperidide; lactam N-9)	–	–	63	30
CC(C)C[C@@H]1NC(=O)[C@H](CC(C)C)N(C)C(=O)CCN(C)C(=O)C[C@@H](C(=O)N(C)[C@@H](Cc2ccccc2)C(=O)N[C@@H](C)C(=O)N2CCCCC2)NC(=O)[C@H]([C@@H](C)O)NC(=O)[C@H](CC(C)C)N(C)C(=O)[C@H](Cc2ccccc2)NC(=O)[C@H](Cc2ccccc2)N(C)C(=O)[C@H](CC(C)C)N(C)C1=O [DP-461] ([NMeβAla][NMeL]L[NMeL][NMeF]F[NMeL]TD[NMeF]A-Piperidide; lactam N-9)	78	33	–	–
